Source: ChEMBL document CHEMBL4483862, “Open-source discovery of chemical leads for next-generation chemoprotective antimalarials” (2018)

System: Plasmodium berghei
Assay: Luciferase/luciferin-expressing antifolate-resistant parasites were used to infect a culture of HepG2 cells that were pre-incubated with compounds. Infected hepatocytes emit light due to the luciferase reaction. Assay results are presented as the percent inhibition of light emission compared to control. […]
Assay type: functional
Details: sporozoite; for IC90: read-out: LUCIFERASE INFECTION ASSAY - IC90
[1] = read-out: LUCIFERASE INFECTION ASSAY - IC50

## COc1ccccc1C(=O)Nc1nonc1-c1ccc2c(c1)CCCC2
PBLUC_HILL_SLOPE 13.6, PBLUC_R_SQUARED 0.311, read-out: LUCIFERASE INFECTION ASSAY - IC50
  IC50: 9.15 µM
  IC90: > 9.45 µM

## COc1cccc(CNCc2nc(NCc3cccc(OC)c3)c3c(C)c(C)sc3n2)c1
HEPG2TOX_HILL_SLOPE 3.99, HEPG2TOX_R_SQUARED 0.699, PBLUC_HILL_SLOPE 15.2, PBLUC_R_SQUARED 0.535, read-out: LUCIFERASE INFECTION ASSAY - IC50
  IC50: 8.97 µM
  IC90: > 10 µM

## NC(=O)C1CCN(C(=O)CCn2c(=O)oc3ccccc32)CC1
[1]
  IC50: > 10 µM
  IC90: > 10 µM

## COC(=O)C1=CC2C3C(=O)N(c4cc(Cl)cc(Cl)c4)C(=O)C3C1C1C(=O)N(c3cc(Cl)cc(Cl)c3)C(=O)C21 (stereo not given)
PBLUC_HILL_SLOPE 1.53, PBLUC_R_SQUARED 0.573, read-out: LUCIFERASE INFECTION ASSAY - IC50
  IC50: 2.18 µM
  IC90: > 5.55 µM

## O=C1Nc2ccc(Br)cc2/C1=N\N=C\c1cc([N+](=O)[O-])ccc1OC(F)F
[1]
  IC50: > 10 µM
  IC90: > 10 µM

## N#CC(C(=O)c1cc(S(=O)(=O)N2CCc3ccccc3C2)ccc1Cl)c1ccccn1 (stereo not given)
PBLUC_HILL_SLOPE 17.6, PBLUC_R_SQUARED 0.387, read-out: LUCIFERASE INFECTION ASSAY - IC50
  IC50: 3.32 µM
  IC90: 3.76 µM

## Oc1c(C(c2ccc(Cl)cc2)c2cc(Cl)c3cccnc3c2O)cc(Cl)c2cccnc12
FFLUC_HILL_SLOPE 4.28, FFLUC_R_SQUARED 0.979, HEPG2TOX_HILL_SLOPE 0.496, HEPG2TOX_R_SQUARED 0.799, PBLUC_HILL_SLOPE 1.82, PBLUC_R_SQUARED 0.848, read-out: LUCIFERASE INFECTION ASSAY - IC50
  IC50: 0.693 µM
  IC90: 2.32 µM

## CC(OC(=O)CCc1nc2cc(Cl)ccc2n(Cc2ccccc2)c1=O)C(=O)N1CCCC1 (stereo not given)
PBLUC_HILL_SLOPE 7.3, PBLUC_R_SQUARED 0.693, read-out: LUCIFERASE INFECTION ASSAY - IC50
  IC50: 3.7 µM
  IC90: 5 µM

## c1ccc2sc(-c3nc4ccccc4s3)nc2c1
PBLUC_HILL_SLOPE 0.811, PBLUC_R_SQUARED 0.754, read-out: LUCIFERASE INFECTION ASSAY - IC50
  IC50: 1.16 µM
  IC90: > 10 µM

## COc1cccc(C2CNC(c3ccc(Cl)cc3)c3[nH]c4ccccc4c32)c1OC (stereo not given)
PBLUC_HILL_SLOPE 2.02, PBLUC_R_SQUARED 0.709, read-out: LUCIFERASE INFECTION ASSAY - IC50
  IC50: 1.84 µM
  IC90: 5.44 µM

## CCOC(=O)c1ccsc1NC(=O)CNc1ccc(Br)cc1
HEPG2TOX_HILL_SLOPE 11.3, HEPG2TOX_R_SQUARED 0.575, read-out: LUCIFERASE INFECTION ASSAY - IC50
  IC50: > 10 µM
  IC90: > 10 µM

## NC(=O)c1ccc(-c2cc(-c3cc(F)c(F)c(F)c3)cnc2N)cc1
[1]
  IC50: > 9.61 µM
  IC90: > 9.61 µM

## Cc1cc(C)c(-c2csc(NC(=O)Cc3ccccc3)n2)c(C)c1
[1]
  IC50: 2.81 µM
  IC90: 3.56 µM

## O=C(Nc1ccc(Oc2ccccc2)cc1)c1csc(C(O)c2cccc(OC(F)(F)F)c2)n1 (stereo not given)
HEPG2TOX_HILL_SLOPE 1.57, HEPG2TOX_R_SQUARED 0.929, PBLUC_HILL_SLOPE 3.6, PBLUC_R_SQUARED 0.22, read-out: LUCIFERASE INFECTION ASSAY - IC50
  IC50: 2.8 µM
  IC90: 5.15 µM

## O=C(Oc1ccc(/C=N/Nc2nc3ccccc3s2)c(OC(=O)c2ccco2)c1)c1ccco1
PBLUC_HILL_SLOPE 13.1, PBLUC_R_SQUARED 0.411, read-out: LUCIFERASE INFECTION ASSAY - IC50
  IC50: 9.2 µM
  IC90: > 10 µM

## Cc1ccccc1-c1cn2c(-c3ccc4ncccc4c3)cnc2cn1
HEPG2TOX_HILL_SLOPE 0.237, HEPG2TOX_R_SQUARED 0.401, PBLUC_HILL_SLOPE 15.7, PBLUC_R_SQUARED 0.693, read-out: LUCIFERASE INFECTION ASSAY - IC50
  IC50: 0.0131 µM
  IC90: 0.015 µM

## Cc1cc(Cl)cc(/C=N/NC(=S)NC(C)(C)C)c1O
[1]
  IC50: 3.66 µM
  IC90: 3.97 µM

## O=C(Nc1nc2ccccn2c1C(=O)NC1CCCC1)c1cccc(Cl)c1F
HEPG2TOX_HILL_SLOPE 0.754, HEPG2TOX_R_SQUARED 0.896, PBLUC_HILL_SLOPE 3.54, PBLUC_R_SQUARED 0.569, read-out: LUCIFERASE INFECTION ASSAY - IC50
  IC50: 0.669 µM
  IC90: 1.24 µM

## O=C(Nc1ccccc1)Nc1ccccc1Sc1nccc(C(F)(F)F)n1
PBLUC_HILL_SLOPE 1.34, PBLUC_R_SQUARED 0.717, read-out: LUCIFERASE INFECTION ASSAY - IC50
  IC50: 1.57 µM
  IC90: 8.05 µM

## Cc1cc(C(=O)Nc2nc3ccc(Cl)cc3s2)c2c(C)nn(C)c2n1
HEPG2TOX_HILL_SLOPE 1.29, HEPG2TOX_R_SQUARED 0.966, PBLUC_HILL_SLOPE 2.52, PBLUC_R_SQUARED 0.194, read-out: LUCIFERASE INFECTION ASSAY - IC50
  IC50: 3.81 µM
  IC90: 9.09 µM

## CCCCN(C(=O)CCC(=O)OCC(=O)NC(=O)NCC)c1c(N)n(CCC)c(=O)[nH]c1=O
[1]
  IC50: > 10 µM
  IC90: > 10 µM

## CCN(CC)S(=O)(=O)c1cccc(-c2nnc(SCC(=O)N3CCC(c4ccccc4)=N3)n2Cc2ccccc2)c1
FFLUC_HILL_SLOPE 11.4, FFLUC_R_SQUARED 0.285, PBLUC_HILL_SLOPE 0.735, PBLUC_R_SQUARED 0.117, read-out: LUCIFERASE INFECTION ASSAY - IC50
  IC50: > 10 µM
  IC90: > 10 µM

## CSc1sc(NC(=O)Nc2ccc(Cl)cc2)cc1S(=O)(=O)C(C)C
PBLUC_HILL_SLOPE 7.91, PBLUC_R_SQUARED 0.357, read-out: LUCIFERASE INFECTION ASSAY - IC50
  IC50: 6.79 µM
  IC90: > 8.15 µM

## COc1cc(/C=C2\COC/C(=C\c3ccc(O)c(OC)c3)C2=O)ccc1O
HEPG2TOX_HILL_SLOPE 3.66, HEPG2TOX_R_SQUARED 0.976, PBLUC_HILL_SLOPE 1.71, PBLUC_R_SQUARED 0.466, read-out: LUCIFERASE INFECTION ASSAY - IC50
  IC50: > 8.96 µM
  IC90: > 8.96 µM

## N#Cc1ccc(C=C(C(=O)NCc2ccccc2)C(=O)NCc2ccccc2)cc1
[1]
  IC50: > 10 µM
  IC90: > 10 µM

## Cc1cn2nc(N(C)Cc3ccc(N(C)C)cc3)sc2n1
HEPG2TOX_HILL_SLOPE 9.75, HEPG2TOX_R_SQUARED 0.561, PBLUC_HILL_SLOPE 7.25, PBLUC_R_SQUARED 0.0375, read-out: LUCIFERASE INFECTION ASSAY - IC50
  IC50: 7.97 µM
  IC90: > 10 µM

## Cc1nn2c(=O)c(Cc3ccccc3Cl)c(C)[nH]c2c1-c1ccccc1
[1]
  IC50: 2.68 µM
  IC90: 2.97 µM

## O=C(Nc1nonc1-c1ccc(Cl)cc1)C(c1ccccc1)c1ccccc1
FFLUC_HILL_SLOPE 3.18, FFLUC_R_SQUARED 0.644, PBLUC_HILL_SLOPE 3.44, PBLUC_R_SQUARED 0.465, read-out: LUCIFERASE INFECTION ASSAY - IC50
  IC50: 4.34 µM
  IC90: 8.22 µM

## CS(=O)(=O)c1ccc(-c2cnc3ccc(Cc4ccc(F)cc4)nn23)cc1
[1]
  IC50: 2.9 µM
  IC90: 3.4 µM

## CCOc1cc(/C=C/C(=O)c2ccc(C)cc2)cc(Br)c1OCC(=O)N(C)C
[1]
  IC50: 3.4 µM
  IC90: 3.89 µM

## CC1C(=O)N(CC(O)COCc2ccccc2Cl)C(=O)N1c1ccccc1 (stereo not given)
FFLUC_HILL_SLOPE 10.9, FFLUC_R_SQUARED 0.0106, read-out: LUCIFERASE INFECTION ASSAY - IC50
  IC50: > 10 µM
  IC90: > 10 µM

## COc1ccc([N+](=O)[O-])cc1C(=O)NCCOc1ccc2ccccc2c1
PBLUC_HILL_SLOPE 24.5, PBLUC_R_SQUARED 0.535, read-out: LUCIFERASE INFECTION ASSAY - IC50
  IC50: 9.5 µM
  IC90: > 10 µM

## COC(=O)c1ccc(C(=O)Nc2nc3ccc(C)cn3c2C(=O)NC2CCCCC2)cc1
HEPG2TOX_HILL_SLOPE 6.71, HEPG2TOX_R_SQUARED 0.117, PBLUC_HILL_SLOPE 12.8, PBLUC_R_SQUARED 0.0177, read-out: LUCIFERASE INFECTION ASSAY - IC50
  IC50: 7.03 µM
  IC90: > 7.6 µM

## CC(Nc1ccc(N(C)C(C)C)c(F)c1)C(=O)N1CCCC1 (stereo not given)
PBLUC_HILL_SLOPE 12.8, PBLUC_R_SQUARED 0.621, read-out: LUCIFERASE INFECTION ASSAY - IC50
  IC50: 7.89 µM
  IC90: 9.36 µM

## COc1ccc(CNCCC(c2ccc(F)cc2)c2ccco2)cc1 (stereo not given)
HEPG2TOX_HILL_SLOPE 73.6, HEPG2TOX_R_SQUARED 0.521, PBLUC_HILL_SLOPE 15.7, PBLUC_R_SQUARED 0.627, read-out: LUCIFERASE INFECTION ASSAY - IC50
  IC50: 1.06 µM
  IC90: 1.22 µM

## NC(=O)C1CCN(c2nc(-c3ccc(Cl)cc3)nc3sc4c(c23)CCC4)CC1
FFLUC_HILL_SLOPE 3.15, FFLUC_R_SQUARED 0.774, HEPG2TOX_HILL_SLOPE 6.41, HEPG2TOX_R_SQUARED 0.32, PBLUC_HILL_SLOPE 20.1, PBLUC_R_SQUARED 0.486, read-out: LUCIFERASE INFECTION ASSAY - IC50
  IC50: 3.4 µM
  IC90: 3.79 µM

## CCOC(=O)Cc1nn(Cc2nc(-c3ccc4c(c3)C(C)(C)CCC4(C)C)cs2)c(=O)c2ccccc12
FFLUC_HILL_SLOPE 16.2, FFLUC_R_SQUARED 0.167, PBLUC_HILL_SLOPE 1.27, PBLUC_R_SQUARED 0.666, read-out: LUCIFERASE INFECTION ASSAY - IC50
  IC50: 0.357 µM
  IC90: 2.02 µM

## Cc1cc(C(=O)CSc2nnc3n2CCCCC3)c(C)n1Cc1ccc2c(c1)OCO2
[1]
  IC50: > 10 µM
  IC90: > 10 µM

## Cc1ccc(-c2nc(COC(=O)Cc3ccccc3[N+](=O)[O-])cs2)cc1
HEPG2TOX_HILL_SLOPE 1.86, HEPG2TOX_R_SQUARED 0.968, PBLUC_HILL_SLOPE 3.1, PBLUC_R_SQUARED 0.491, read-out: LUCIFERASE INFECTION ASSAY - IC50
  IC50: 6.23 µM
  IC90: > 10 µM

## O=C(Nc1ccc(Cl)cc1)Nc1ccc2c(c1)no[n+]2[O-]
HEPG2TOX_HILL_SLOPE 58.7, HEPG2TOX_R_SQUARED 0.822, PBLUC_HILL_SLOPE 3.98, PBLUC_R_SQUARED 0.47, read-out: LUCIFERASE INFECTION ASSAY - IC50
  IC50: 4.62 µM
  IC90: 8.03 µM
